We go through eleven compounds from paper PMC10455904, “New Phocoenamicin and Maklamicin Analogues from Cultures of Three Marine-Derived Micromonospora Strains” (Marine Drugs, 2023).

≈ marks a conversion by molar mass, not a printed value. Entries after “also recorded” stand apart in the source; their conditions may differ. Like-named read-outs stand apart in the source and are kept apart here.

For orientation: IC50 means the concentration needed to halve the response being measured.

Data set [1] concerns methicillin-resistant Staphylococcus aureus (MRSA) MB5393. The data set can be described thus: Antibacterial MIC assay against MRSA MB5393. The format is cell-based.
For data set [2], the system named is Mycobacterium tuberculosis H37Ra (ATCC25177). Description: Antibacterial MIC assay against M. tuberculosis H37Ra. The data set is classed as cell-based. To be noted: lowest concentration inhibiting ≥90% of growth.
In data set [3] the test system is Enterococcus faecalis VANS 144492. Description: Antibacterial MIC assay against E. faecalis. The data set is classed as cell-based.
Data set [4] has as its system Enterococcus faecium VANS 144754. The data set can be described thus: Antibacterial MIC assay against E. faecium. The format is cell-based.
In data set [5] the test system is Neisseria gonorrhoeae ATCC49226. Description: Antibacterial MIC assay against N. gonorrhoeae. The format is cell-based.
The nature of another data set: in vitro. To be noted: human.
The subject of data set [6] is zebrafish eleuthero embryos. Description: Zebrafish eleuthero embryos toxicity assay (immersion). The data set is classed as in vivo. To be noted: for toxicity (lethality and sub-lethal toxicity): 3 dpf larvae, 48 h immersion, 1.6–25 μM, read at 5 dpf; for developmental abnormalities: 25 μM, 48 h exposure, 5 dpf, representative larvae. The protocol:
The compounds were dissolved in dimethyl sulfoxide (DMSO) and then diluted in the fish medium (Danieau) in which the 3 dpf zebrafish larvae were swimming for 48 h. The concentrations tested were 1.6, 3.13, 6.25, 12.5 and 25 μM for each of the three compounds. Vehicle-treated Control eleuthero embryos (VHC) were also treated with the same concentration of DMSO (0.5%) in fish medium to compare the possible effects of the compounds.
After the 48 h exposure, corresponding to 5 dpf larvae, the possible mortality, touch-stimulation response and developmental abnormalities were examined using a dissecting microscope coupled with a digital color camera and pictures were captured. Then, the score for the sub-lethal toxicity and lethality was determined for each fish and condition and the mean score was calculated. The assays were independently replicated three times, using 10 embryos for each condition and compound in each assay, and thus the total number of zebrafish embryos used was 480.
Each of the three compounds (3, 4 and 7) was dissolved in 100% dimethyl sulfoxide (DMSO, spectroscopy grade) and diluted in Danieau’s medium to a final concentration of 25 μΜ (0.5% DMSO), followed by ½ serial dilutions to provide five testing concentrations (1.6, 3.13, 6.25, 12.5 and 25 μM).
Next, 3 dpf zebrafish eleuthero embryos randomly selected were immersed in a 24-well plate containing the three compounds in the different testing concentrations (n = 10 larvae per well). At the same time, 10 Vehicle-treated Control eleuthero embryos (VHC) were also treated with 0.5% DMSO, in accordance with the final solvent concentration of testing compounds to compare the possible effects of the compounds. The eleuthero embryos were incubated under a 14/10 h light/dark cycle at 27–28 °C.
After the 48 h exposure, at 5 dpf, the lethality (cardiac rhythm and degraded body were used as clinical criteria) and touch-stimulation response were assessed using non-anesthetized eleuthero embryos, while the possible morphological defects were evaluated after anesthetizing the eleuthero embryos in 0.5 mM tricaine. All observations were performed using an M80 stereo microscope (Leica Microsystems, Danaher Co., Wetzlar, Germany) and pictures were captured with a Leica DFC310 FX digital color camera (Leica Microsystems, Danaher Co., Germany) and stored.
Mean score of lethality and sub-lethal toxicity per condition was calculated as follows: To each adverse effect observed (impaired motility, bad development, body curvature and swim bladder defects) a score of 1 was given (maximum 4 per larva), and a score of 6 to each dead embryo. The mean score was then calculated for all eleuthero embryos (pooled results) examined per condition, as performed before.
The results were obtained from three independent experiments, using ten larvae for each test concentration and compound. Statistical analysis was performed by using GraphPad Prism version 9.0 (GraphPad Software Inc., San Diego, CA, USA) and one-way analysis of variance (ANOVA) followed by Tukey’s multiple comparison test. The criterion for statistical significance was p < 0.05.

The test system of data set [7] is human liver adenocarcinoma cell line (Hep G2).
Data set [8] shares this test system. Description: MTT cytotoxicity assay, Hep G2. Conditions: for cytotoxicity (in words): Hep G2, in vitro. A general note: Formazan colour is commonly taken as a measure of viable cells.
The nature of data set [9]: MTT cytotoxicity assay, Hep G2. To be noted: human.
Setting [10] is: Mycobacterium tuberculosis, read-out: MIC.
[11] abbreviates: Enterococcus faecalis, VANS144492.
Where [12] appears, read: Enterococcus faecium, VANS144754.
Setting [13] is: Neisseria gonorrhoeae, ATCC49226.
[14] abbreviates: Staphylococcus aureus, MRSA MB5393, lowest concentration inhibiting ≥90% of growth after overnight incubation, read-out: MIC.
The mark [15] stands for this setting: Enterococcus faecalis, VANS144492, E. faecalis VANS 144492, lowest concentration inhibiting ≥90% of growth, read-out: MIC.
Setting [16] is: Enterococcus faecium, VANS144754, E. faecium VANS 144754, lowest concentration inhibiting ≥90% of growth, read-out: MIC.
Setting [17] is: Neisseria gonorrhoeae, N. gonorrhoeae ATCC49226, lowest concentration inhibiting ≥90% of growth, read-out: MIC.

As to `CC(=O)C(C)(O)C(O)CC1CC23OC(=O)C(=C2O)OC(=O)C2(C)C(C=CC4C(OC5OC(C)C(O)C(OC6OC(C)C(OC(=O)c7c(O)ccc(Cl)c7C)C(O)C6O)C5O)C(C)CC(C)C42)C(C)C=CCC3(C)C=C1CO` (stereo not shown) [Compound 1, Phocoenamicin D], the MIC in data set [1] (Staphylococcus aureus, MRSA) is 58 µM (≈ 64 µg/mL); in data set [2] (setting [10]), 58 µM (≈ 64 µg/mL); in [3] (setting [11]), above 58 µM; in data set [4] (setting [12]), at least 116 µM; in data set [5] (setting [13]), above 116 µM. Further, the IC50 in the data set “in vitro” was above 58.8 µM.

Take `C[C@H]1CC[C@@H]2[C@H](C=C[C@H]3[C@H](C)/C=C/C[C@]4(C)C=C(CO)[C@H](C[C@@H](C)O)C[C@]45OC(=O)C(=C5O)C(=O)[C@@]23C)C1` [Compound 7, maklamicin]: the MIC in data set [1] (MRSA MB5393, lowest concentration inhibiting ≥90% of growth after overnight incubation, read-out: MIC) is below 0.5 µM; in data set [1] (setting [14]), below 0.5 µM; in data set [2] (setting [10]), 61 µM (≈ 32 µg/mL); in data set [3] (setting [15]), 1.9 µM (≈ 0.997 µg/mL); in data set [4] (setting [16]) it was 1 µM (≈ 0.525 µg/mL); in data set [5] (setting [17]), above 244 µM. Moreover, the “toxicity (lethality and sub-lethal toxicity)” value in data set [6] is recorded as “no toxicity; also recorded: not to be toxic”. The “cytotoxicity (in words)” value in [7] was “moderate activity”. Besides, in “in vitro”, 40.2 µM corresponded to half-maximal inhibition (IC50).

For the compound `COS(C)(=O)=O` [MMS, Methyl methanesulfonate, reference compound], the “cell death (positive control)” value in data set [8] (Hep G2, MTT, 2 mM) is reported as 100%.

Take `CN[C@H](CC(C)C)C(=O)N[C@H]1C(=O)N[C@@H](CC(N)=O)C(=O)N[C@H]2C(=O)N[C@H]3C(=O)N[C@H](C(=O)N[C@H](C(=O)O)c4cc(O)cc(O)c4-c4cc3ccc4O)[C@H](O)c3ccc(c(Cl)c3)Oc3cc2cc(c3O[C@@H]2O[C@H](CO)[C@@H](O)[C@H](O)[C@H]2O[C@H]2C[C@](C)(N)[C@H](O)[C@H](C)O2)Oc2ccc(cc2Cl)[C@H]1O` [vancomycin, reference compound]: the MIC in data set [1] (MRSA MB5393, lowest concentration inhibiting ≥90% of growth after overnight incubation) was 1.4 (V) μM; in data set [1] (setting [14]), 1.4 µM (≈ 2.03 µg/mL); in data set [3] (E. faecalis VANS 144492, lowest concentration inhibiting ≥90% of growth), 1.4 (V) μM; in [3] (setting [15]), 1.4 µM (≈ 2.03 µg/mL); in data set [4] (E. faecium VANS 144754, lowest concentration inhibiting ≥90% of growth) it was 1.4 (V) μM; in data set [4] (setting [16]), 1.4 µM (≈ 2.03 µg/mL).

As to `CC1=CC2(C)CC=CC(C)C3C=CC4CC(C)CCC4C3(C)C(=O)C3=C(O)C2(CC1CC(C)O)OC3=O` (stereo not shown) [Compound 6, Maklamicin B], the MIC in data set [1] (setting [14]) is 2 µM (≈ 1.02 µg/mL); in data set [2] (setting [10]), 2 µM (≈ 1.02 µg/mL); in [3] (setting [15]), 62.9 µM (≈ 32 µg/mL); in data set [4] (setting [16]) it was 1 µM (≈ 0.509 µg/mL); in data set [5] (setting [17]), above 252 µM. Besides, in the data set “in vitro”, the IC50 is above 58.8 µM.

As to penicillin [reference compound], the MIC in data set [5] (N. gonorrhoeae ATCC49226, lowest concentration inhibiting ≥90% of growth) was 5.6 (P) μM.

With `[H]/N=C(/N)N[C@H]1[C@H](O)[C@@H](O)[C@H](O[C@@H]2O[C@@H](C)[C@](O)(C=O)[C@H]2O[C@@H]2O[C@@H](CO)[C@H](O)[C@@H](O)[C@@H]2NC)[C@@H](N/C(N)=N\[H])[C@@H]1O` [streptomycin, reference compound], the MIC in [2] (setting [10]) was 2.8 to 5.4 µM (≈ 1.63 to 3.14 µg/mL); in [2] it was 2.8–5.4 (S) μM.

With `CC(=O)[C@](C)(O)[C@@H](O)C[C@@H]1C[C@@]23OC(=O)C(=C2O)C(=O)[C@@]2(C)[C@H]4[C@H](C=C[C@H]2[C@H](C)/C=C/C[C@]3(C)C=C1CO)[C@@H](O[C@@H]1O[C@H](C)[C@@H](O)[C@H](O[C@H]2O[C@H](C)[C@@H](OC(=O)c3c(O)ccc(Cl)c3C)[C@H](O)[C@H]2O)[C@H]1O)[C@H](C)C[C@@H]4C` [Compound 4, phocoenamicin B], the MIC in data set [1] (Staphylococcus aureus, MRSA) is 7.4 µM (≈ 8.05 µg/mL); in data set [2] (setting [10]), 14.7 µM (≈ 16 µg/mL); in [3] (setting [11]) it was above 58.8 µM; in data set [4] (setting [12]) it was at least 58.8 µM; in data set [5] (setting [13]), above 118 µM. The developmental abnormalities result in data set [6] is given as “no developmental abnormalities”. Besides, the “toxicity (lethality and sub-lethal toxicity)” value in [6] is listed as “no toxicity; also recorded: not to be toxic”. 17.6 µM corresponded to half-maximal inhibition in the data set “in vitro” (IC50). For the same compound, in [8], the “cytotoxicity (in words)” value is reported as “moderate activity”.

On to `CC(=O)[C@](C)(O)[C@@H](O)C[C@@H]1C[C@@]23OC(=O)C(=C2O)OC(=O)[C@@]2(C)[C@H]4[C@H](C=C[C@H]2[C@H](C)/C=C/C[C@]3(C)C=C1C)[C@@H](O[C@@H]1O[C@H](C)[C@@H](O)[C@H](O[C@H]2O[C@H](C)[C@@H](OC(=O)c3c(O)ccc(Cl)c3C)[C@H](O)[C@H]2O)[C@H]1O)[C@H](C)C[C@@H]4C` [Compound 5, phocoenamicin C], for which the MIC is 29.4 µM (≈ 32 µg/mL) in [1] (setting [14]); 29.4 to 58.8 µM (≈ 32 to 64 µg/mL) in [2] (setting [10]); above 58.8 µM in data set [3] (setting [15]); above 58.8 µM in [4] (setting [16]); above 58.8 µM in data set [5] (setting [17]). In data set [9], this compound gave a half-maximal inhibitory concentration (IC50) above 58.8 µM.

For `CC(=O)[C@](C)(O)[C@@H](O)C[C@@H]1C[C@@]23OC(=O)C(=C2O)C(=O)[C@@]2(C)[C@H]4[C@H](C=C[C@H]2[C@H](C)/C=C/C[C@]3(C)C=C1C)[C@@H](O[C@@H]1O[C@H](C)[C@@H](O)[C@H](O[C@H]2O[C@H](C)[C@@H](OC(=O)c3c(O)ccc(Cl)c3C)[C@H](O)[C@H]2O)[C@H]1O)[C@H](C)C[C@@H]4C` [Compound 3, phocoenamicin], the MIC in data set [1] (setting [14]) was 3.7 µM (≈ 3.97 µg/mL); in data set [2] (setting [10]) it was 7.5 µM (≈ 8.04 µg/mL); in data set [3] (setting [15]), 7.5 µM (≈ 8.04 µg/mL); in data set [4] (setting [16]), 3.7 to 7.5 µM (≈ 3.97 to 8.04 µg/mL); in data set [5] (setting [17]) it was above 119 µM. Moreover, the developmental abnormalities result in [6] is “no developmental abnormalities”. The “toxicity (lethality and sub-lethal toxicity)” value in data set [6] is given as “no toxicity; also recorded: not to be toxic”. The same compound yielded a concentration for half-maximal inhibition (IC50) in [9] above 58.8 µM.

Consider `Cc1c(Cl)ccc(O)c1C(=O)O[C@H]1[C@H](O)[C@@H](O)[C@@H](O[C@@H]2[C@@H](O)[C@H](O[C@@H]3[C@H]4C=C[C@H]5[C@H](C)/C=C/C[C@]6(C)C=C(CO)[C@H](C[C@@H](C)O)C[C@]67OC(=O)C(=C7O)C(=O)[C@@]5(C)[C@@H]4[C@@H](C)C[C@H]3C)O[C@H](C)[C@H]2O)O[C@@H]1C` [Compound 2, Phocoenamicin E], for which the MIC in data set [1] (Staphylococcus aureus, MRSA) was 31.5 to 63 µM (≈ 32 to 64 µg/mL); in data set [2] (setting [10]), 31.5 to 63 µM (≈ 32 to 64 µg/mL); in data set [3] (setting [15]) it was above 63 µM; in data set [4] (setting [16]), above 63 µM; in [5] (setting [17]), above 126 µM. For the same compound, 21 µM corresponded to half-maximal inhibition in data set [9] (IC50). Also, the “cytotoxicity (in words)” value in data set [8] was “moderate activity”.
